Test results from article PMC12340956, “Tranylcypromine-Based LSD1 Inhibitors as Useful Agents to Reduce Viability of” (ACS Infectious Diseases, 2025).
Like-named read-outs stand apart in the source and are kept apart here.

Columns and labels:
[1] = test system: newly transformed schistosomula (NTS); test: NTS viability phenotypic screening, 72 h
Experimental: (§4) For NTS and adult worms, transparent flat-bottom 96- and 24-well plates were used, respectively (Sarstedt, Switzerland). For juvenile worms, 48-well plates were used with 3–6 worms per plate and RPMI medium with 5% FCS and 1% penicillin/streptomycin. Compounds were initially tested at 20 and 10 μM in triplicate on NTS and repeated once; each well contained 30–40 NTS. Phenotypic reference points such as motility, morphology, and granularity were used to score incubated parasites’ overall viability (scores from 0 to 3). […] Identified hits from the NTS screening were tested on adult worms. […] The experiment was conducted in duplicate and repeated; standard deviations were calculated from two wells. […] For all in vitro assays, negative controls (DMSO at the highest tested concentration) were included.

NTS = test: Speed-of-action assay in NTS; format: cell-based, Schistosoma mansoni; conditions: for Percentage of effect: NTS; for IC50: Schistosoma mansoni, read-out: IC50 (speed of action, NTS)
Description: (§1) To better characterize a selection of our LSD1i in vitro, we assessed the onset of their action, defined as the time required for an observable antischistosomal effect. […] For detailed percentages of activity at each time point, refer to the Supporting Information (Tables S2 and S3 in Supporting Information).

[2] = molecular target: T1, human LSD1-CoREST complex (Homo sapiens, UniProt O60341); test: HRP-coupled LSD1 inhibition assay; format: biochemical; conditions: 10 min preincubation, read-out: IC50 (hLSD1 direct inhibition)
T1 construct: made in house
Experimental: Protein expression, thermal stability, and inhibition of human LSD1-CoREST were performed using established protocols. […] The reaction was initiated by adding an equal volume of the substrate solution to the enzyme–inhibitor mixture, and resorufin fluorescence (excitation at 530–570 nm and emission at 580–590 nm) was detected with a Clariostar plate reader.

adult worms [3] = test: Adult worm viability phenotypic assay, 72 h; conditions: Schistosoma mansoni, read-out: IC50 (adult worm viability)
Experimental: The life cycle is maintained at the Swiss TPH as described previously. Cercariae were obtained from infected snails by exposing them to a strong light source for 3–4 h in pond water.
as §4

[4] = MTT cytotoxicity in MRC-5 cells; format: cell-based; conditions: human, MRC-5 lung diploid fibroblast cells
Experimental: (§2) The MTT method was used to evaluate cell viability after 72 h of treatment.
(§3) Human commercial lung diploid fibroblasts (MRC-5), and diploid retinal epithelium cells (RPE) were obtained from the American Type Culture Collection (ATCC) and kindly provided by Dr Francesca Degrassi (CNR IBPM) and maintained in minimal essential medium or DMEM-F12 medium supplemented with fetal calf serum, antibiotics, and nonessential amino acids. Cells were grown at 37 °C, in a humidified atmosphere, with 5% CO2. For experiments, cells were seeded in 200 μL of complete in each well of a 96-well microtiter plate. After 24 h, compounds were added at 5, 10, 25, and 50 μM for 72 h in sextuplicate. MTT was added (0.5 mg/mL), incubated for 4 h at 37 °C, and dissolved in 200 μL of isopropyl alcohol. Absorbance was measured at 570 nm (ELISA reader, DASIT), and cell viability was calculated as viability=(ODoftreatedcells/ODofcontrolcells)×100

[5] = MTT cytotoxicity in RPE cells; format: cell-based; conditions: human, retinal pigment epithelial (RPE) cells
Experimental: as §2, §3

[6] = molecular target: T1, human LSD1-CoREST complex; test: ThermoFAD thermal stability assay; format: binding; conditions: for ΔTm: LSD1-CoREST thermal stability
Experimental: Compounds 14–22 were tested against the human LSD1-CoREST complex to determine their inhibitory activity. […] ThermoFAD assays were then performed to assess the impact of 14–22 on the thermal stability (ΔT m values, Table ) of the LSD1-CoREST complex. The most significant shifts in Tm values corresponded to the strongest binders. […] Compound 22 was not tested, considering its previous negative results.
Protein expression, thermal stability, and inhibition of human LSD1-CoREST were performed using established protocols. […] LSD1-CoREST (0.4 μM) was preincubated with the inhibitor at 25 °C for 10 min in the presence of 5% DMSO. The reaction was initiated by adding an equal volume of the substrate solution to the enzyme–inhibitor mixture, and resorufin fluorescence (excitation at 530–570 nm and emission at 580–590 nm) was detected with a Clariostar plate reader.

[7] = test system: S. mansoni juvenile forms; test: Speed-of-action assay in juvenile forms; format: cell-based, Schistosoma mansoni; conditions: for IC50: Schistosoma mansoni, read-out: IC50 (speed of action, juvenile forms); for Percentage of effect: juvenile forms
Description: as §1

adult worms [8] = test: Pairing and egg laying of adult worms; format: cell-based, Schistosoma mansoni; conditions: for eggs' number: 20 μM
Experimental: Selected compounds 2, 15, 18, and 19 were tested on adult worms to evaluate their effects on pairing and egg laying.

[9] = molecular target: T1, human LSD1-CoREST complex; test: Spectrophotometric analysis of flavin cofactor bleaching; format: biochemical
[10] = 5 μM, read-out: percentage of viability, 72 h
[11] = 10 μM, read-out: percentage of viability, 72 h
[12] = 25 μM, read-out: percentage of viability, 72 h
[13] = 50 μM, read-out: percentage of viability, 72 h
[14] = read-out: IC50 (cell viability)

In the case of Cl.NC1CC1c1ccc(NC(=O)c2ccc(C#CC3CC3)cc2)cc1 (stereo not drawn) [Compound 19, N-(4-(2-Aminocyclopropyl)phenyl)-4-(cyclopropylethynyl)benzamide Hydrochloride], the “Percentage of reduction of NTS viability, 72 h” value (“Percentage of reduction … 72 h” for short) ([1]; 1 μM) is reported as 22.6 ± 1.9%, the “Percentage of reduction … 72 h” value ([1]; 10 μM) is reported as 100 ± 0.0% and the “Percentage of reduction … 72 h” value ([1]; 20 μM) is reported as 100 ± 0.0%. The IC50 ([1]; Schistosoma mansoni, read-out: IC50 (NTS viability)) was 1.27 µM, the Percentage of effect (NTS; 4 h, 10 μM) was 30.77% and the Percentage of effect (NTS; 4 h, 20 μM) was 38.46%. It also gave a Percentage of effect (NTS; 24 h, 10 μM) of 48.21%, a Percentage of effect (NTS; 24 h, 20 μM) of 78.57% and a Percentage of effect (NTS; 48 h, 10 μM) of 87.76%. The Percentage of effect (NTS; 48 h, 20 μM) was 100%, the Percentage of effect (NTS; 72 h, 10 μM) was 93.88% and the Percentage of effect (NTS; 72 h, 20 μM) was 100%. It also gave an IC50 (NTS; 4 h) of over 20 µM, an IC50 (NTS; 24 h) of 10.4 µM and an IC50 (NTS; 48 h) of 8.3 µM. For the same compound, the IC50 (NTS; 72 h) was 7.5 µM, the IC50 [2] was 0.02 ± 0.001 µM and the IC50 (adult worms [3]) was over 10 µM. The viability at 72 h, 5 µM [4, 10] was 98 ± 20%, the viability at 72 h, 10 µM [4, 11] was 88 ± 18% and the viability at 72 h, 25 µM [4, 12] was 85 ± 8%. It also gave a viability at 72 h, 50 µM [4, 13] of 85 ± 35%, an IC50 at 72 h [4, 14] of over 100 µM and a viability at 72 h, 5 µM [5, 10] of 92 ± 26%. It also gave a viability at 72 h, 10 µM [5, 11] of 89 ± 35%, a viability at 72 h, 25 µM [5, 12] of 98 ± 21% and a viability at 72 h, 50 µM [5, 13] of 103 ± 20%. The IC50 at 72 h [5, 14] was over 100 µM, the ΔTm [6] was “+8 °C” and the IC50 ([7]; 4 h) was over 20 µM. It also gave an IC50 ([7]; 24 h) of over 20 µM, an IC50 ([7]; 48 h) of over 20 µM and an IC50 ([7]; 72 h) of 2.7 µM. For the same compound, the Percentage of effect ([7]; 4 h, 1 μM) was 20%, the Percentage of effect ([7]; 4 h, 10 μM) was 20% and the Percentage of effect ([7]; 4 h, 20 μM) was 41.82%. The Percentage of effect ([7]; 24 h, 1 μM) was 27.59%, the Percentage of effect ([7]; 24 h, 10 μM) was 34.48% and the Percentage of effect ([7]; 24 h, 20 μM) was 40.38%. For the same compound, the Percentage of effect ([7]; 48 h, 1 μM) was 36.54%, the Percentage of effect ([7]; 48 h, 10 μM) was 46.15% and the Percentage of effect ([7]; 48 h, 20 μM) was 47.92%. The Percentage of effect ([7]; 72 h, 1 μM) was 43.03%, the Percentage of effect ([7]; 72 h, 10 μM) was 46.73% and the Percentage of effect ([7]; 72 h, 20 μM) was 81.25%. For the same compound, the “eggs' number” value (adult worms [8]; 4 h) was 0, the “eggs' number” value (adult worms [8]; 8 h) was 0 and the “eggs' number” value (adult worms [8]; 24 h) was 0. For the same compound, the “eggs' number” value (adult worms [8]; 48 h) was 0, the “eggs' number” value (adult worms [8]; 72 h) was 5 and the “effect on worm pairing” value (adult worms [8]; adult worms) was “no impact on worm pairing”.

In the case of Cl.NC1CC1c1cccc(NC(=O)c2ccc(C#CC3CC3)cc2)c1 (stereo not drawn) [Compound 22, N-(3-(2-Aminocyclopropyl)phenyl)-4-(cyclopropylethynyl)benzamide Hydrochloride], the “thermal shift compared to the control” value [6] is reported as “no thermal shift”, the ΔTm [6] is reported as 0 °C and the “bleaching of the flavin cofactor” value [9] is reported as “no bleaching”.
